According to paper PMC3601546 (Bioorganic & medicinal chemistry letters, 2012):

Target: T1, human NPBWR1 (Homo sapiens, UniProt P48145)
T1 sequence (P48145 1-328): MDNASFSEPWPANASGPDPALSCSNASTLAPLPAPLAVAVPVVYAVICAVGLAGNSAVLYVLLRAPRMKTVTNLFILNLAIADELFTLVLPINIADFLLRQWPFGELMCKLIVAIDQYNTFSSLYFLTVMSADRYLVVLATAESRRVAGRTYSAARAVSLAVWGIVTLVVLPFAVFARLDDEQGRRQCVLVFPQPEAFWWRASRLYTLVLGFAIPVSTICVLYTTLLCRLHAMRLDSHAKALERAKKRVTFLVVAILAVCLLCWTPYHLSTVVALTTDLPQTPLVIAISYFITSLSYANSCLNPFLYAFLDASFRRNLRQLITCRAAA
Test: NPBWR1 antagonist calcium release
Format: cell-based
Conditions: not given

| NPBWR1 antagonist activity in words | SMILES |
| --- | --- |
| Total loss of potency | COc1ccc(Oc2c(N)cnn(-c3ccc(C(C)C)cc3)c2=O)cc1 [9p] |
| Total loss of potency | COc1ccc(Oc2c(NC(C)=O)cnn(-c3ccc(C(C)C)cc3)c2=O)cc1 [9q] |
| inactive | COc1ccc(Oc2c(C(=O)O)cnn(-c3ccc(C(C)C)cc3)c2=O)cc1 [9m] |
| Total loss of potency | COc1ccc(Oc2ccnn(-c3ccc(C(C)C)cc3)c2=O)cc1 [9o] |
| drastic loss in potency | COc1ccc(Oc2c(-c3ccccc3)cnn(-c3ccc(C)cc3)c2=O)cc1 [9d] |
| Total loss of activity | COc1ccc(Oc2c(Cl)c(C(=O)O)nn(-c3ccc(C(C)C)cc3)c2=O)cc1 [9t] |

Same assay, conditions: ratio of NPBWR1 IC50 vs 1a

| fold more potent than the hit 1a | SMILES |
| --- | --- |
| 2- to 3 fold | Cc1ccc(-n2ncc(Cl)c(Oc3ccc(C(F)(F)F)cc3)c2=O)cc1 [6e] |
| ~ fourfold | COc1ccc(Oc2c(Cl)cnn(-c3ccc(C)c(C)c3)c2=O)cc1 [1s] |

Same assay, conditions: ratio of NPBWR1 IC50 vs 1j

| fold less potent than 1j | SMILES |
| --- | --- |
| ~ 15 fold | COc1ccc(Oc2c(C#N)cnn(-c3ccc(C(C)C)cc3)c2=O)cc1 [9l] |
| 13 fold | CCOC(=O)c1nn(-c2ccc(C(C)C)cc2)c(=O)c(Oc2ccc(OC)cc2)c1Cl [9s] |
| ~ 21 fold | COc1ccc(Oc2c(CO)cnn(-c3ccc(C(C)C)cc3)c2=O)cc1 [9k] |
| 13 fold | COC(=O)c1nn(-c2ccc(C(C)C)cc2)c(=O)c(Oc2ccc(OC)cc2)c1Cl [9u] |
| 10 fold | COC(=O)c1cnn(-c2ccc(C(C)C)cc2)c(=O)c1Oc1ccc(OC)cc1 [9n] |

The remaining lines, values behind:

| SMILES | fold less potent than 1j |
| --- | --- |
| COc1ccc(Oc2c(C=O)cnn(-c3ccc(C(C)C)cc3)c2=O)cc1 [9j] | ~ 23 fold |
| C=Cc1cnn(-c2ccc(C(C)C)cc2)c(=O)c1Oc1ccc(OC)cc1 [9h] | ~9 fold |
| CC(C)c1ccc(-n2ncc(Cl)c(Oc3ccc(O)cc3)c2=O)cc1 [6i] | ~ 18 fold |
| COc1ccc(Oc2c(C)cnn(-c3ccc(C(C)C)cc3)c2=O)cc1 [9g] | ~ 28 fold |
| CC(C)c1ccc(-n2ncc(Cl)c(Oc3ccc(C(=O)CN)cc3)c2=O)cc1 [6l] | eightfold |
| CC(C)c1ccc(-n2ncc(Cl)c(Oc3ccc(OC(F)(F)F)cc3)c2=O)cc1 [6j] | ~45 fold |

Same assay, conditions: ratio of NPBWR1 IC50 vs 1t

| fold decrease in potency compared to 1t | SMILES |
| --- | --- |
| ~ 3.5 fold | COc1ccc(Oc2c(Cl)c(OC)nn(-c3cccc(C)c3)c2=O)cc1 [9r] |

Same assay, conditions: ratio of NPBWR1 IC50 vs 9a

| fold loss in potency compared to 9a | SMILES |
| --- | --- |
| ~ eightfold | COc1ccc(Oc2c(C3CC3)cnn(-c3ccc(C)cc3)c2=O)cc1 [9f] |

Test system: Ricerca panel of 35 therapeutically relevant off-target proteins including GPCRs, enzymes and ion channels
Test: Selectivity profile against Ricerca panel of 35 off-target proteins
Conditions: at 10 μM

| stimulation/inhibition against the pool of tested off-targets | SMILES |
| --- | --- |
| < 50% | COc1ccc(Oc2c(Cl)cnn(-c3cc(C)cc(C)c3)c2=O)cc1 [1z, 5-chloro-2-(3,5-dimethylphenyl)-4-(4-methoxyphenoxy)pyridazin-3(2H)-one] |

Test system: HT29 cells
Test: Viability assay on HT29 cells
Format: cell-based
Conditions: final tested concentration of 20 μM

| SMILES | cytotoxicity in viability assay |
| --- | --- |
| COc1ccc(Oc2c(Cl)cnn(-c3cc(C)cc(C)c3)c2=O)cc1 [1z, 5-chloro-2-(3,5-dimethylphenyl)-4-(4-methoxyphenoxy)pyridazin-3(2H)-one] | non cytotoxic |
